Reference: patent US20140242606A1, “PROBE FOR iFRET AND USE THEREOF” (KOREA RESEARCH INSTITUTE OF BIOSCIENCE AND BIOTECHNOLOGY, priority 2011, published 2014)

Assays:
[1] = Fluorescence characterization of fluorescent molecules (excitation and emission wavelengths); format: physicochemical; conditions: fluorescent molecule, Table 1
Description: 1-Naphthylethylenediamine of Chemical Formula I can be effectively detected by LED (light-emitting diode), and used as a fluorescent probe. In addition, because this compound has an excitation wavelength of 340 nm to 380 nm and an emission wavelength of 400 nm to 600 nm, it has longer emission wavelength than the known fluorophores, and therefore, it can be detected as a fluorescent molecule distinct from the cellular autofluorescence.
The excitation and emission wavelengths of the fluorescent molecules of the present invention, that is, the compounds represented by Chemical Formulae I to XXII are described in Table 1, and graphs showing the fluorescent characteristics thereof are given in FIGS. 3 to 15.

streptavidin [2] = target: T1, streptavidin (Streptomyces avidinii, UniProt P22629); assay: iFRET detection of streptavidin with biotin-conjugated probes; format: binding; conditions: UV irradiation at 280 nm
Description: The results of detecting streptavidin using Compounds of Chemical Formulae XXV to XXVIII as probes for iFRET are shown in FIGS. 23 to 26.
(§1) As in FIG. 23 showing the result of using the compound of Chemical Formula XXV as a probe for iFRET, the probe itself emitted low fluorescence (blue line) at 430 nm by UV irradiation at 280 nm; the protein (streptavidin) emitted fluorescence (green line) at 340 nm by UV irradiation at 280 nm.
(§2) As in FIG. 24 showing the result of using the compound of Chemical Formula XXVI as a fluorescent probe, the probe itself emitted low fluorescence (blue line) at 460 nm by UV irradiation at 280 nm; the protein (streptavidin) emitted fluorescence (green line) at 340 nm by UV irradiation at 280. […] Further, it was confirmed that the fluorescence increasing rate at the above emission wavelength was 600% or more, indicating production of effective iFRET signals.
Because the compound of Chemical Formula XXVII emitted fluorescence at the longer wavelength than the known iFRET probe, signal-to-noise ratio is […] during real-time cell imaging, thereby providing more clear images.
In order to examine target specificity of the probe having Chemical Formula XXVIII, the probe was exposed to BSA to examine whether iFRET signals were produced by binding of the probe to BSA. […] Therefore, it was confirmed that the biotin-conjugated iFRET fluorescent probe of the present invention selectively binds to streptavidin to produce iFRET signals.

[3] = Quantum yield measurement; format: physicochemical; conditions: 0.1 M pH 10.0 phosphate buffer, standard 4-methyl-umbelliferone
Experimental: (§3) The quantum yield of each compound was measured in 0.1 M pH 10.0 phosphate buffer. 4-methyl-umbelliferone (ΦF 0.63) was used as a standard material, tryptophan (ΦF=0.12) was used as an FRET donor to calculate the quantum yield. FRET efficiency was calculated based on the results measured in PBS buffer at pH 7.4, and fluorescence was measured using an LS55 fluorescence spectrometer manufactured by Perkin Elmer.

streptavidin [4] = target: T1, streptavidin; assay: FRET efficiency and Forster distance of biotin-conjugated probes; format: binding; conditions: between iFRET probe and streptavidin
Experimental: as §3

[5] = Fluorescence of the iFRET probe alone; format: physicochemical; conditions: for fluorescence emission wavelength of probe alone: excitation / UV irradiation at 280 nm
Description: After excitation at 260, 280, 340, and 360 nm, the emitted fluorescence spectra were examined. […]
as §1
as §2, with “signals. […]” for “signals.”

[6] = value used for calculation; cited from earlier work
active caspase = target: T2, active caspase (Homo sapiens, UniProt P42574); assay: iFRET detection of caspase-3 with probe XXIII; format: binding; conditions: mixture of probe and active caspase, excitation at 280 nm, versus caspase or probe alone
T2 sequence (P42574 29-175 limits assumed): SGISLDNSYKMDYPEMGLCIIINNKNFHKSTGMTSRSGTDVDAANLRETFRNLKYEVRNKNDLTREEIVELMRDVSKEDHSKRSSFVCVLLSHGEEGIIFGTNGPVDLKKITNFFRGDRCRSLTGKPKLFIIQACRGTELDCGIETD
T2 sequence (P42574 176-277 limits assumed): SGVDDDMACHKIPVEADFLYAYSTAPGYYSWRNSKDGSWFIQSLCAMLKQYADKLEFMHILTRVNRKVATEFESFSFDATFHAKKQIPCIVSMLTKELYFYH
Description: <Detection of Caspase-3 Protein and Test of its Activity Using iFRET Probe of Chemical Formula XXIII>
Chemical Formula XXIII and caspase protein were used to detect iFRET signals.

inactive caspase = assay: iFRET control with inactive caspase; format: binding; conditions: inactive caspase and probe excited at 280 nm

| SMILES | Emission wavelength (nm) [1] [nm] | Excitation wavelength (nm) [1] | also measured |
| --- | --- | --- | --- |
| CN(C)c1cccc2c(S(=O)(=O)Cl)cccc12 [Chemical Formula XIX] | 520 | 340 nm | – |
| COC(=O)C1=CN(C)C=C(C(=O)OC)C1C=C(C)C [Chemical Formula VI, dimethyl 1-methyl-4-(2-methyl-1-propenyl)-1,4-dihydropyridine-3,5-dicarboxylate] | 450 | 390 nm | – |
| COC(=O)CC1C(C(=O)OC)=CN(C)C=C1C(=O)OC [Chemical Formula VIII, dimethyl 4-(2-methoxy-2-oxoethyl)-1-methyl-1,4-dihydropyridine-3,5-dicarboxylate] | 450 | 370 nm | – |
| NCCNc1cccc2ccccc12 [Chemical Formula I, 1-naphthylethylenediamine] | 430 | 340 nm | – |
| O=C(CCCCC1SCC2NC(=O)NC21)NCCNC(=O)Cc1cc(=O)oc2cc(O)ccc12 (centres unmarked) [Chemical Formula XXVI, N-(7-hydroxycoumarin-4-acetyl)-N′-(biotinyl)ethylenediamine] | – | – | fluorescence / iFRET signal of mixture of probe and streptavidin (streptavidin [2]): increased fluorescence at 460 nm; fluorescence increasing rate at emission wavelength 460 nm (streptavidin [2]; mixture of probe and streptavidin): ≥ 600%; Quantum yield (ΦF) [3]: 0.7; R0 (Fōrster distance) (streptavidin [4]): 1.675 nm; fluorescence emission wavelength of probe alone [5]: 460 nm |
| N[C@@H](Cc1c[nH]c2ccccc12)C(=O)O [tryptophan] | – | – | quantum yield ΦF of standard material / FRET donor [6]: 0.12 |
| O=C(CCCC[C@@H]1SC[C@@H]2NC(=O)N[C@@H]21)NCCNc1cccc2ccccc12 [Chemical Formula XXV, N-biotinyl N′-(1-naphthyl)ethylenediamine] | – | – | fluorescence / iFRET signal of mixture of probe and streptavidin (streptavidin [2]): increased fluorescence at 430 nm; Quantum yield (ΦF) [3]: 0.7; R0 (Fōrster distance) (streptavidin [4]): 1.837 nm; fluorescence emission wavelength of probe alone [5]: 430 nm |
| COC(=O)C1=C(C)N(Cc2ccccc2)C=CC1(C)C [Chemical Formula V, methyl 1-benzyl-2,4,4-trimethyl-1,4-dihydropyridine-3-carboxylate] | 430 | 330 nm | – |
| COC(=O)CCC(NC(=O)C(CC(=O)OC)NC(=O)CCC(=O)NCCNc1cccc2ccccc12)C(=O)N[C@@H](C(=O)NC(CC(=O)OC)C(=O)C(F)(F)F)C(C)C (stereo partly drawn) [Chemical Formula XXXII, N-(1-naphthyl)ethyleneamide-4-butaneamide-Asp(CO2Me)-L-Glu(CO2Me)-L-Val-Asp(CO2Me)-(ketone)-CF3] | – | – | fluorescence emission wavelength of probe [5]: 430 nm |
| COC(=O)C1=CN(C)C=C(C(=O)O)C1C=C(C)C (centres unmarked) [Chemical Formula VII, 5-(methoxycarbonyl)-1-methyl-4-(2-methyl-1-propenyl)-1,4-dihydropyridine-3-carboxylic acid] | 450 | 380 nm | – |
| CC(C)[C@H](NC(=O)[C@H](CCC(=O)O)NC(=O)[C@H](CC(=O)O)NC(=O)CCC(=O)NCCNc1cccc2ccccc12)C(=O)N[C@H](C=O)CC(=O)O [Chemical Formula XXIII] | – | – | increase of fluorescence at 445 nm (active caspase): approximately 300%; iFRET signals (inactive caspase): no iFRET signals were observed; fluorescence emission wavelength of probe alone [5]: approximately 445 nm |
| O=C(O)/C=C/c1cc2ccc(O)cc2oc1=O [Chemical Formula IX, 3-(7-hydroxy-2-oxo-2H-chromen-3-yl)acrylic acid] | 480 | 370-380 nm | – |
| COC(=O)C1=CN(C)C=C(C(=O)O)C1 [Chemical Formula IV, 5-(methoxycarbonyl)-1-methyl-1,4-dihydropyridine-3-carboxylic acid] | 480 | 390-400 nm | – |
| CC(C)(C)OC(=O)Nc1ccc2cc(/C=C/C(=O)O)ccc2c1 [Chemical Formula XV] | 450 | 330 nm | – |
| COC(=O)C1=CN(C)C=CC1(C)C [Chemical Formula II, methyl 1,4,4-trimethyl-1,4-dihydropyridine-3-carboxylate] | 450 | 360 nm | – |
| O=C(/C=C/c1cc2ccc(O)cc2oc1=O)NCCNC(=O)CCCC[C@@H]1SC[C@@H]2NC(=O)N[C@@H]21 [Chemical Formula XXVII, N-((E)-7-hydroxycoumarin-3-acryl)-N′-(biotinyl)ethylenediamide] | – | – | fluorescence / iFRET signal of mixture of probe and streptavidin (streptavidin [2]): increased fluorescence at 480 nm; Quantum yield (ΦF) [3]: 0.105; R0 (Fōrster distance) (streptavidin [4]): 2.161 nm |
| Cc1cc(=O)oc2cc(O)ccc12 [4-methyl-umbelliferone] | – | – | quantum yield ΦF of standard material / FRET donor [6]: 0.63 |

Continued, in another order:

| Emission wavelength (nm) [1] [nm] | Excitation wavelength (nm) [1] | SMILES | also measured |
| --- | --- | --- | --- |
| 390 | 330 nm | COc1ccc2cc(C(=O)O)c(=O)oc2c1 [Chemical Formula XVI] | – |
| 450 | 370 nm | CCOC(=O)Cc1cc(=O)oc2cc(N(CC)CC)ccc12 [Chemical Formula XXII, ethyl 2-(7-(diethylamino)-2-oxo-2H-chromen-4-yl)acetate] | – |
| 480 | 380-420 nm | CC(C)(C)OC(=O)NCCNC(=O)/C=C/c1cc2ccc(O)cc2oc1=O [Chemical Formula XI, tert-butyl 2-(3-(7-hydroxy-2-oxo-2H-chromen-3-yl)acrylamido)ethylcarbamate] | – |
| 450 | 370 nm | Cc1cc(=O)oc2cc(O)ccc12 [Chemical Formula XIV] | – |
| 510 | 430 nm | COC(=O)/C=C/c1cc2ccc(O)cc2oc1=O [Chemical Formula X, methyl 3-(7-hydroxy-2-oxo-2H-chromen-3-yl)acrylate] | – |
| 450 | 400 nm | Cc1ccc2cc(C(=O)O)c(=O)oc2c1 [Chemical Formula XIII] | – |
| 480 | 370 nm | CN(C)c1ccc2c(CC(=O)O)cc(=O)oc2c1 [Chemical Formula XXI, 2-(7-(dimethylamino)-2-oxo-2H-chromen-4-yl)acetic acid] | – |
| 490 | 370 nm | CCOC(=O)Cc1cc(=O)oc2cc(N(C)C)ccc12 [Chemical Formula XX, ethyl 2-(7-(dimethylamino)-2-oxo-2H-chromen-4-yl)acetate] | – |
| 470 | 400 nm | CCN(CC)c1ccc2cc(C(=O)n3ccnc3)c(=O)oc2c1 [Chemical Formula XVIII] | – |
